We go through one compound from ChEMBL document CHEMBL4619786, “Discovery of Novel Resorcinol Dibenzyl Ethers Targeting the Programmed Cell Death-1/Programmed Cell Death-Ligand 1 Interaction as Potential Anticancer Agents” (J Med Chem, 2020).

Data set [1] can be described thus: Half life in Sprague-Dawley rat at 1 mg/kg, iv by LC-MS/MS analysis. Type of data set: ADME, organism-based. The conditions noted are these: in vivo.
Data set [2] can be described thus: Clearance in Sprague-Dawley rat at 10 mg/kg, po by LC-MS/MS analysis. Format: ADME, organism-based. Particulars: in vivo.
The subject of data set [3] is B16-F10. In words: Antitumor activity against mouse B16/F10 cells implanted in BALB/c mouse assessed as tumor growth inhibition at 25 mg/kg, ig administered once daily via gavage for 15 days relative to control. Format: functional. Particulars: B16-F10, po, 360 h, read-out: TGI.
Data set [4] can be described thus: Toxicity in mouse B16/F10 cells implanted […] mouse assessed as histological changes in kidney at 25 to 100 mg/kg, ig administered once daily via gavage for 15 days measured 24 hrs post-last dose by H and E staining based microscopic analysis. Format: organism-based. The conditions noted are these: in vivo, po.
Data set [5] concerns Mus musculus. In words: Immunostimulatory activity in mouse B16/F10 cells implanted BALB/c mouse assessed as increase in activation of tumor-microenvironment mediated helper T cells in tumor by measuring CD3-positive cell population at 100 mg/kg, ig administered once daily via gavage for 15 days measured 24 hrs post-last dose by immunostaining based flow cytometry (reference value: 18.9%). Format: functional. On the technique in general: In flow cytometry, cells or beads pass a laser one at a time.

Data set [6] concerns Mus musculus. In words: Immunostimulatory activity in mouse B16/F10 cells implanted BALB/c mouse assessed as increase in activation of tumor-microenvironment mediated helper T cells in tumor by measuring CD4-positive cell population at 50 mg/kg, ig administered once daily via gavage for 15 days measured 24 hrs post-last dose by immunostaining based flow cytometry (reference value: 4.95%). Format: functional.

Data set [7] concerns Mus musculus. Nature of the data set: Immunostimulatory activity in mouse B16/F10 cells implanted BALB/c mouse assessed as increase in activation of tumor-microenvironment mediated helper T cells in tumor by measuring melanoma cell population at 25 mg/kg, ig administered once daily via gavage for 15 days measured 24 hrs post-last dose by immunostaining based flow cytometry (reference value: 70%). Type of data set: functional.

Data set [8] deals with Mus musculus. Nature of the data set: Immunostimulatory activity in mouse B16/F10 cells implanted […] mouse assessed as increase in activation of tumor-microenvironment mediated helper T cells in tumor by measuring CD3-positive cell population at 25 mg/kg, ig administered once daily via gavage for 15 days measured 24 hrs post-last dose by immunostaining based flow cytometry (reference value: 18.9%). Type of data set: functional.

In data set [9] the test system is Mus musculus. Nature of the data set: Effect on activated cytotoxic T cell population in mouse B16/F10 cells implanted […] mouse assessed as CD3-positive cell population in spleen at 50 mg/kg, ig administered once daily via gavage for 15 days measured 24 hrs post-last dose by immunostaining based flow cytometry (reference value: 27.5 %). Format: organism-based. Particulars: in vivo, po.

The test system of data set [10] is Mus musculus. Nature of the data set: Effect on spleen helper T cell population in mouse B16/F10 cells implanted […] mouse assessed as spleen cell population at 25 mg/kg, ig administered once daily via gavage for 15 days measured 24 hrs post-last dose by immunostaining based flow cytometry (reference value: 56.1 %). Format: ADME, organism-based. The conditions noted are these: in vivo, po.

Data set [11] relates to Mus musculus. Nature of the data set: Effect on activated cytotoxic T cell population in mouse B16/F10 cells implanted […] mouse assessed as CD3-positive/CD8-positive cell population in spleen at 25 mg/kg, ig administered once daily via gavage for 15 days measured 24 hrs post-last dose by immunostaining based flow cytometry (reference value: 14.2 %). The conditions noted are these: in vivo, po. Type of data set: organism-based.

On to `Cc1c(COc2cc(OCc3cccc(C#N)c3)c(CNC(C)(C)C(=O)O)cc2Cl)cccc1-c1ccccc1`, for which the half-life (commonly the time in which the quantity being followed falls by half) in data set [1] was 90 min. The CL/F (in general, the apparent clearance, not corrected for the fraction that reaches the circulation) in [2] was 385 mL/min/kg. Also, in data set [3], the inhibition in vivo at 25 mg/kg came to 51.1%. The Activity result in data set [4] is “Non-Toxic”; in data set [5] it was 28%; in [6], 2.27%; in data set [7] it was 65.2%; in data set [8], 15%; in data set [9], 28.8%. The Activity in data set [10] came to 59.9%; in data set [11], 12.5%.
